For 32 compounds, IC50 results are on record in patent US7816353B2 (Exelixis, Inc., priority 2003, dated 2010).

By IC50 is commonly meant the concentration that gives 50% inhibition.

T1 sequence (P23443 1-421 T412E): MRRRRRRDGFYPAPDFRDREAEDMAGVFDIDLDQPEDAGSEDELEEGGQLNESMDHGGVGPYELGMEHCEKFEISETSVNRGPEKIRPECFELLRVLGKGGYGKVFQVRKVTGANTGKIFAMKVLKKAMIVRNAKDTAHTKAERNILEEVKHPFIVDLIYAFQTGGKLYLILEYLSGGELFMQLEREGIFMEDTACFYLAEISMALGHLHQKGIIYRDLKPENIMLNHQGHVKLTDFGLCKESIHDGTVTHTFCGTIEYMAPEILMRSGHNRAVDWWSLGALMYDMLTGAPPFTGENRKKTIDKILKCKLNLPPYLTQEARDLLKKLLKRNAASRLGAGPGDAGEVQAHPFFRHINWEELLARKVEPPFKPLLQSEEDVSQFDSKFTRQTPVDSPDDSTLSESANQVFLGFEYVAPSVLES

This experiment has as its target T1, p70S6K (Homo sapiens, UniProt P23443, T412E).
T1 construct: human p70S6 kinase domain residues 1-421, containing a T412E mutation; made in house
The experiment can be described thus: p70S6 Kinase Assay (Luciferase-Coupled Chemiluminescent Kinase assay, LCCA). Conditions: human p70S6 kinase domain residues 1-421, T412E; 5 μM ATP; read-out: p70S6K IC50. In kind it is biochemical. The method, then:
Kinase activity and compound inhibition are investigated using one or more of the three assay formats described below. The ATP concentrations for each assay are selected to be close to the Michaelis-Menten constant (KM) for each individual kinase. Dose-response experiments are performed at 10 different inhibitor concentrations in a 384-well plate format. […] Y=Min+(Max−Min)/(1+(X/IC50)^H) Equation (2) p70S6 Kinase Assay
Biochemical activity of p70S6 kinase was assessed using a Luciferase-Coupled Chemiluminescent Kinase assay (LCCA) format. Kinase activity was measured as the percent ATP remaining following the kinase reaction. Remaining ATP was detected by luciferase-luciferin-coupled chemiluminescence. […] The mixture is incubated at ambient temperature for 2 hours after which 20 μL luciferase-luciferin mix is added and the chemiluminescent signal read using a Wallac Victor^2 reader.
With `COc1ccc(C(F)(F)F)cc1NC(=O)[C@H](C)Nc1nc(N)nc(SC)c1C#N` [Example 79, N^2-[2-amino-5-cyano-6-(methylthio)pyrimidin-4-yl]-N-[2-(methyloxy)-5-(trifluoromethyl)phenyl]-L-alaninmide], the IC50 was above 2000 nM.

In the case of `CSc1nc(N)nc(N[C@@H](C)C(=O)Nc2cc(C(F)(F)F)ccc2Cl)c1C#N` [Example 80, N^2-[2-amino-5-cyano-6-(methylthio)pyrimidin-4-yl]-N-[2-5-(trifluoromethyl)phenyl]-L-alaninamide], the IC50 is above 2000 nM.

Take `CSc1nc(N)nc(NC(C)(C)C(=O)Nc2cccc(C(F)(F)F)c2)c1C#N` [Example 81, N^2-[2-amino-5-cyano-6-(methylthio)pyrimidin-4-yl]-2-methyl-N-[3-(trifluoromethyl)phenyl]alaninamide]: the IC50 was above 2000 nM.

Turning to `CSc1nc(N)nc(N[C@@H](C)C(=O)Nc2cccc(C(=O)N3CCN(C)CC3)c2)c1C#N` [Example 82, N^2-[2-amino-5-cyano-6-(methylthio)pyrimidin-4-yl]-N-{3-[(4-methylpiperazin-1-yl)carbonyl]phenyl}-L-alaninamide], the IC50 was above 2000 nM.

On to `CSc1nc(N)nc(N[C@H](C)C(=O)Nc2cccc(C(F)(F)F)c2)c1C#N` [Example 83, N^2-[2-amino-5-cyano-6-(methylthio)pyrimidin-4-yl]-N-[3-(trifluoromethyl)phenyl]-D-alaninamide], for which the IC50 is above 2000 nM.

As to `N#Cc1c(SCC(=O)Nc2cccc(C(F)(F)F)c2)nc(N)nc1N1CCOCC1` [Example 84, 2-[(2-amino-5-cyano-6-morpholin-4-ylpyrimidin-4-yl)thio]-N-[3-(trifluoromethyl)phenyl]acetamide], the IC50 is above 2000 nM.

Take `CSc1nc(N)nc(N2CCC[C@@H]2C(=O)Nc2cccc(C(F)(F)F)c2)c1C#N` [Example 85, (R)-1-[2-amino-5-cyano-6-(methylthio)pyrimidin-4-yl]-N-[3-(trifluoromethyl)phenyl]prolinamide]: the 50% inhibitory concentration (IC50) is above 2000 nM.

Take `CSc1nc(N)nc(N[C@@H](CCCN)C(=O)Nc2cccc(C(F)(F)F)c2)c1C#N` [Example 86, N^2-[2-amino-5-cyano-6-(methylthio)pyrimidin-4-yl]-N-[3-(trifluoromethyl)phenyl]-L-ornithinamide]: the IC50 is above 2000 nM.

Consider `CSc1nc(N)nc(N(CCN(C)C)CC(=O)Nc2cccc(C(F)(F)F)c2)c1C#N` [Example 87, N^2-[2-amino-5-cyano-6-(methylthio)pyrimidin-4-yl]-N^2-[2-(dimethylamino)ethyl]-N-[3-(trifluoromethyl)phenyl]glycinamide], for which the IC50 is above 2000 nM.

On to `CCOc1nc(N)nc(N[C@@H](C)C(=O)Nc2cccc(C(F)(F)F)c2)c1C#N` [Example 88, N^2-[2-amino-5-cyano-6-(ethyloxy)pyrimidin-4-yl]-N-[3-(trifluoromethyl)phenyl]-L-alaninamide], for which the IC50 is above 2000 nM.

As for `C[C@H](Nc1nc(N)nc(N)c1C#N)C(=O)Nc1cccc(C(F)(F)F)c1` [Example 89, N^2-(2,6-diamino-5-cyanopyrimidin-4-yl)-N-[3-(trifluoromethyl)phenyl]-L-alaninamide], the IC50 is above 2000 nM.

Take `C[C@H](Nc1nc(N)ncc1C#N)C(=O)Nc1cccc(C(F)(F)F)c1` [Example 90, N^2-(2-amino-5-cyanopyrimidin-4-yl)-N-[3-(trifluoromethyl)phenyl]-L-alaninamide]: the IC50 is above 2000 nM.

Take `CSc1nc(N)nc(N(C)[C@@H](C)C(=O)Nc2cccc(C(F)(F)F)c2)c1C#N` [Example 91, N^2-[2-amino-5-cyano-6-(methylthio)pyrimidin-4-yl]-N^2-methyl-N-[3-(trifluoromethyl)phenyl]-L-alaninamide]: the IC50 is above 2000 nM.

`CCN(CC)CCOc1cccc(NC(=O)[C@H](C)Nc2nc(N)nc(SC)c2C#N)c1` [Example 92, N^2-[2-amino-5-cyano-6-(methylthio)pyrimidin-4-yl]-N-(3-{[2-(diethylamino)ethyl]oxy}phenyl)-L-alaninamide]: the IC50 was above 2000 nM.

In the case of `CSc1nc(N)nc(N(C)N(C)C(=O)Nc2cccc(C(F)(F)F)c2)c1C#N` [Example 93, 2-[2-amino-5-cyano-6-(methylthio)pyrimidin-4-yl]-1,2-dimethyl-N-[3-(trifluoromethyl)phenyl]hydrazinecarboxamide], the half-maximal inhibitory concentration (IC50) is above 2000 nM.

For `CSc1nc(N)nc(N[C@@H](C)C(=O)Nc2cc(N)cc(C(F)(F)F)c2)c1C#N` [Example 94, N^2-[2-amino-5-cyano-6-(methylthio)pyrimidin-4-yl]-N-[3-amino-5-(trifluoromethyl)phenyl]-L-alaninamide], the IC50 was above 2000 nM.

Turning to `CCOC(=O)CN(NC(=O)Nc1cccc(C(F)(F)F)c1)c1nc(N)nc(SC)c1C#N` [Example 95, ethyl[1-[2-amino-5-cyano-6-(methylthio)pyrimidin-4-yl]-2-({[3-(trifluoromethyl)phenyl]amino}carbonyl)hydrazino]acetate], the half-inhibitory concentration (IC50) was above 2000 nM.

On to `CSc1nc(N)nc(N(C)NC(=O)Nc2cccc(C(F)(F)F)c2)c1C#N` [Example 96, 2-[2-amino-5-cyano-6-(methylthio)pyrimidin-4-yl]-2-methyl-N-[3-(trifluoromethyl)phenyl]hydrazinecaboxamide], for which the half-inhibitory concentration (IC50) was above 2000 nM.

Take `Cc1nc2oc(C(=O)Nc3cccc(C(F)(F)F)c3)c(N)c2c(C)c1N` [Example 97, 3,5-diamino-4,6-dimethyl-N-[3-(trifluoromethyl)phenyl]furo[2,3-b]pyridine-2-carboxamide]: the IC50 is above 2000 nM.

On to `Cc1nc2oc(C(=O)Nc3cccc(C(F)(F)F)c3)c(N)c2c(C)c1[N+](=O)[O-]` [Example 98, 3-amino-4,6-dimethyl-5-nitro-N-[3-(trifluoromethyl)phenyl]furo[2,3-b]pyridine-2-carboxamide], for which the 50% inhibitory concentration (IC50) is above 2000 nM.

On to `C[C@H](Nc1nc(N)nc(O)c1C#N)C(=O)Nc1cccc(C(F)(F)F)c1` [Example 99, N^2-(2-amino-5-cyano-6-hydroxypyrimidin-4-yl)-N-[3-(trifluoromethyl)phenyl]-L-alaninamide], for which the IC50 is above 2000 nM.

As to `C[C@H](Nc1nc(N)nc(OCCN(C)C)c1C#N)C(=O)Nc1cccc(C(F)(F)F)c1` [Example 102, N^2-(2-amino-5-cyano-6-{[2-(dimethylamino)ethyl]oxy}pyrimidin-4-yl)-N-[3-(trifluoromethyl)phenyl]-L-alaninamide], the IC50 was above 2000 nM.

As to `CSc1nc(N)nc(N[C@@H](CCCCNC(=O)OC(C)(C)C)C(=O)Nc2cccc(C(F)(F)F)c2)c1C#N` [Example 103, N^2-[2-amino-5-cyano-6-(methylthio)pyrimidin-4-yl]-N-6-{[(1,1-dimethylethyl)oxy]carbonyl}-N-[3-(trifluoromethyl)phenyl]-L-lysinamide], the IC50 was above 2000 nM.

For `CSc1nc(N)nc(N(C)[C@@H](C)c2nc3ccc(C(F)(F)F)cc3[nH]2)c1C#N` [Example 104, 2-amino-4-(methylthio)-6-(methyl{(1S)-1-[6-(trifluoromethyl)-1H-benzimidazol-2-yl]ethyl}amino)pyrimidine-5-carbonitrile], the IC50 was above 2000 nM.

`CSc1nc(N)nc(N(CCC2CCOCC2)CC(=O)Nc2cccc(C(F)(F)F)c2)c1C#N` [Example 105, N^2-[2-amino-5-cyano-6-(methylthio)pyrimidin-4-yl]-N^2-[2-(tetrahydro-2H-pyran-4-4yl)ethyl]-N-[3-(trifluoromethyl)phenyl]glycinamide]: the IC50 is above 2000 nM.

For the compound `CCN(CC)CCNc1cc(NC(=O)[C@H](C)Nc2nc(N)nc(SC)c2C#N)cc(C(F)(F)F)c1` [Example 106, N^2-[2-amino-5-cyano-6-(methylthio)pyrimidin-4-yl]-N-[3-{[2-(diethylamino)ethyl]amino}-5-(trifluoromethyl)phenyl]-L-alaninamide], the IC50 is above 2000 nM.

As for `CSc1nc(N)nc(N[C@@H](C)c2nc3ccc(C(F)(F)F)cc3[nH]2)c1C#N` [Example 107, 2-amino-4-(methylthio)-6-({(1S)-1-[6-(trifluoromethyl)-1H-benzimidazol-2-yl]ethyl}amino)pyrimidine-5-carbonitrile], the IC50 was above 2000 nM.

As to `C[C@H](Nc1nc(N)nc(N[C@@H](C)C(=O)Nc2cccc(C(F)(F)F)c2)c1C#N)C(=O)Nc1cccc(C(F)(F)F)c1` [Example 108, 2-{2-amino-5-cyano-6[1-(3-trifluoromethyl-phenylcarbamoyl)-1S-ethylamino]-pyrimidin-4-ylamino}N-(3-trifluoromethyl-phenyl)-2S-propionamide], the IC50 was above 2000 nM.

As to `CSc1nc(N)nc(N(C)CC(=O)Nc2cccc(C)c2)c1C#N` [Example 109, N^2-[2-amino-5-cyano-6-(methylthio)pyrimidin-4-yl]-N^2-methyl-N-(3-methylphenyl)glycinamide], the IC50 is above 2000 nM.

In the case of `CSc1nc(N)nc(N(C)CC(=O)Nc2cccc(C(C)C)c2)c1C#N` [Example 110, N^2-[2-amino-5-cyano-6-(methylthio)pyrimidin-4-yl]-N^2-methyl-N-[3-(1-methylethyl)phenyl]glycinamide], the IC50 is above 2000 nM.

Turning to `CSc1nc(N)nc(N[C@@H](CCCN/C(N)=N/[N+](=O)[O-])C(=O)Nc2cccc(C(F)(F)F)c2)c1C#N` [Example 111, N^2-[2-amino-5-cyano-6-(methylthio)pyrimidin-4-yl]-N^5-[imino(nitroamino)methyl]-N-[3-(trifluoromethyl)phenyl]-L-omithinamide], the half-maximal inhibitory concentration (IC50) is above 2000 nM.

Consider `CSc1nc(N)nc(N[C@@H](C)C(=O)Nc2cccc([N+](=O)[O-])c2)c1C#N` [Example 113, N^2-[2-amino-5-cyano-6-(methylthio)pyrimidin-4-yl]-N-(3-nitrophenyl)-L-alaninamide], for which the IC50 was above 2000 nM.
